Legend:
Assay type in all cases: in vivo
[1] = test system: Echinochloa oryzacola Vasing.; test: Test Example 1: herbicidal activity, application before weed generation in submerged conditions; conditions: Application herbicide amount 320 g/ha; Seventeenth Table
In short: (§1)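 Rating, on a six-step scale from almost no effect (0) to almost completely withered (5), was made three weeks after pre-emergence treatment. Treatment was surface application to flooded pots at g/ha rates, with plants kept at 25° C. to 30° C.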

Monochoria vaginalis = test: as above; conditions: Application herbicide amount 320 g/ha; Seventeenth Table
In short: as §1

Scirpus juncoides = test: as above; conditions: Application herbicide amount 320 g/ha; Seventeenth Table
In short: as §1

Abutilon theophrasti = test: Test Example 4: herbicidal effect by application to foliage (diluvial soil, plastic box); conditions: 320 g/ha; for M (Abutilon theophrasti) herbicidal effect grade: foliage application
In short: (§2)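 Emulsion-formulated compound, diluted to a predetermined g/ha dose, applied by small sprayer to leaves and stems of 14-day-old seedlings grown in sterilized diluvial soil. Effect rated on 0–5 herbicidal-ratio scale three weeks on.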

Alopecurus myosuroides = test: as above; conditions: 320 g/ha; for J (Alopecurus myosuroides) herbicidal effect grade: foliage application
In short: as §2

Amaranthus retroflexus = test: as above; conditions: 320 g/ha; for N (Amaranthus retroflexus) herbicidal effect grade: foliage application
In short: as §2

Apera spica-venti. = test: as above; conditions: 320 g/ha; for L (Apera spica-venti.) herbicidal effect grade: foliage application
In short: as §2

Avena fatua = test: as above; conditions: 320 g/ha; for I (Avena fatua) herbicidal effect grade: foliage application
In short: as §2

Chenopodium album = test: as above; conditions: 320 g/ha; for O (Chenopodium album) herbicidal effect grade: foliage application
In short: as §2

Digitaria ciliaris = test: as above; conditions: 320 g/ha; for F (Digitaria ciliaris) herbicidal effect grade: foliage application
In short: as §2

[2] = test system: Echinochloa crus-galli var. crus-galli; test: as above; conditions: 320 g/ha; for H (Echinochloa crus-galli var. crus-galli) herbicidal effect grade: foliage application
In short: as §2

Galium spurium = test: as above; conditions: 320 g/ha; for Q (Galium spurium) herbicidal effect grade: foliage application
In short: as §2

Lolium multiflorum Lam. = test: as above; conditions: 320 g/ha; for K (Lolium multiflorum Lam.) herbicidal effect grade: foliage application
In short: as §2

Setaria viridis = test: as above; conditions: 320 g/ha; for G (Setaria viridis) herbicidal effect grade: foliage application
In short: as §2

Stellaria media = test: as above; conditions: 320 g/ha; for P (Stellaria media) herbicidal effect grade: foliage application
In short: as §2

Veronica persica = test: as above; conditions: 320 g/ha; for R (Veronica persica) herbicidal effect grade: foliage application
In short: as §2

[3] = test system: Beta vulgaris ssp. vulgaris; test: Test Example 4: effect on crop by application to foliage (diluvial soil, plastic box); conditions: 320 g/ha; for f (Beta vulgaris ssp. vulgaris) effect on crop grade: foliage application
In short: as §2

Brassica campestris L. = test: as above; conditions: 320 g/ha; for g (Brassica campestris L.) effect on crop grade: foliage application
In short: as §2

Glycine max = test: as above; conditions: 320 g/ha; for c (Glycine max) effect on crop grade: foliage application
In short: as §2

Triticum aestivum = test: as above; conditions: 320 g/ha; for e (Triticum aestivum) effect on crop grade: foliage application
In short: as §2

Zea mays = test: as above; conditions: 320 g/ha; for b (Zea mays) effect on crop grade: foliage application
In short: as §2

[4] = test system: directly sowed Oryza sativa; test: as above; conditions: 320 g/ha; for d (directly sowed Oryza sativa) effect on crop grade: foliage application
In short: as §2

Row | SMILES | A: Echinochloa oryzicola Vasing. (herbicidal effect grade) [1] | C: Monochoria vaginalis (herbicidal effect grade) (Monochoria vaginalis) | B: Scirpus juncoides (herbicidal effect grade) (Scirpus juncoides) | M (Abutilon theophrasti) herbicidal effect grade (Abutilon theophrasti) | J (Alopecurus myosuroides) herbicidal effect grade (Alopecurus myosuroides) | N (Amaranthus retroflexus) herbicidal effect grade (Amaranthus retroflexus) | L (Apera spica-venti.) herbicidal effect grade (Apera spica-venti.) | I (Avena fatua) herbicidal effect grade (Avena fatua) | O (Chenopodium album) herbicidal effect grade (Chenopodium album) | F (Digitaria ciliaris) herbicidal effect grade (Digitaria ciliaris) | H (Echinochloa crus-galli var. crus-galli) herbicidal effect grade [2] | Q (Galium spurium) herbicidal effect grade (Galium spurium) | K (Lolium multiflorum Lam.) herbicidal effect grade (Lolium multiflorum Lam.) | G (Setaria viridis) herbicidal effect grade (Setaria viridis) | P (Stellaria media) herbicidal effect grade (Stellaria media) | R (Veronica persica) herbicidal effect grade (Veronica persica) | f (Beta vulgaris ssp. vulgaris) effect on crop grade [3] | g (Brassica campestris L.) effect on crop grade (Brassica campestris L.) | c (Glycine max) effect on crop grade (Glycine max) | e (Triticum aestivum) effect on crop grade (Triticum aestivum) | further results
1 | CSCCc1nnc2c(C(=O)Nc3nnnn3C)ccc(C(F)(F)F)n12 [2-057] | 4 (Herbicidal ratio of 70% or more and less than 90%) | 4 (Herbicidal ratio of 70% or more and less than 90%) | 4 (Herbicidal ratio of 70% or more and less than 90%) | 5 (Herbicidal ratio of 90% or more (almost completely withered)) | 4 (Herbicidal ratio of 70% or more and less than 90%) | 5 (Herbicidal ratio of 90% or more (almost completely withered)) | 4 (Herbicidal ratio of 70% or more and less than 90%) | 4 (Herbicidal ratio of 70% or more and less than 90%) | 5 (Herbicidal ratio of 90% or more (almost completely withered)) | 5 (Herbicidal ratio of 90% or more (almost completely withered)) | 5 (Herbicidal ratio of 90% or more (almost completely withered)) | 4 (Herbicidal ratio of 70% or more and less than 90%) | 4 (Herbicidal ratio of 70% or more and less than 90%) | 5 (Herbicidal ratio of 90% or more (almost completely withered)) | 5 (Herbicidal ratio of 90% or more (almost completely withered)) | 5 (Herbicidal ratio of 90% or more (almost completely withered)) | 5 (Herbicidal ratio of 90% or more (almost completely withered)) | 5 (Herbicidal ratio of 90% or more (almost completely withered)) | 2 (Herbicidal ratio of 20% or more and less than 40%) | 4 (Herbicidal ratio of 70% or more and less than 90%) | b (Zea mays) effect on crop grade (Zea mays): 4 (Herbicidal ratio of 70% or more and less than 90%); d (directly sowed Oryza sativa) effect on crop grade [4]: 5 (Herbicidal ratio of 90% or more (almost completely withered))
2 | Cn1nnnc1NC(=O)c1ccc(C(F)(F)F)n2c(-c3ccc(Cl)nc3)nnc12 [2-060] | 5 (Herbicidal ratio of 90% or more (almost completely withered)) | 5 (Herbicidal ratio of 90% or more (almost completely withered)) | 5 (Herbicidal ratio of 90% or more (almost completely withered)) | 5 (Herbicidal ratio of 90% or more (almost completely withered)) | 3 (Herbicidal ratio of 40% or more and less than 70%) | 5 (Herbicidal ratio of 90% or more (almost completely withered)) | 4 (Herbicidal ratio of 70% or more and less than 90%) | 4 (Herbicidal ratio of 70% or more and less than 90%) | 5 (Herbicidal ratio of 90% or more (almost completely withered)) | 5 (Herbicidal ratio of 90% or more (almost completely withered)) | 5 (Herbicidal ratio of 90% or more (almost completely withered)) | 4 (Herbicidal ratio of 70% or more and less than 90%) | 3 (Herbicidal ratio of 40% or more and less than 70%) | 5 (Herbicidal ratio of 90% or more (almost completely withered)) | 5 (Herbicidal ratio of 90% or more (almost completely withered)) | 5 (Herbicidal ratio of 90% or more (almost completely withered)) | 5 (Herbicidal ratio of 90% or more (almost completely withered)) | 5 (Herbicidal ratio of 90% or more (almost completely withered)) | 2 (Herbicidal ratio of 20% or more and less than 40%) | 4 (Herbicidal ratio of 70% or more and less than 90%) | b (Zea mays) effect on crop grade (Zea mays): 5 (Herbicidal ratio of 90% or more (almost completely withered)); d (directly sowed Oryza sativa) effect on crop grade [4]: 4 (Herbicidal ratio of 70% or more and less than 90%)
3 | Cn1nnnc1NC(=O)c1ccc(C(F)(F)F)n2c(SCc3ccccc3)nnc12 [2-076] | 5 (Herbicidal ratio of 90% or more (almost completely withered)) | 3 (Herbicidal ratio of 40% or more and less than 70%) | 4 (Herbicidal ratio of 70% or more and less than 90%) | – | – | – | – | – | – | – | – | – | – | – | – | – | – | – | – | – | herbicidal effect, M (Abutilon theophrasti) (Abutilon theophrasti; application to foliage): 4 (Herbicidal ratio of 70% or more and less than 90%); herbicidal effect, J (Alopecurus myosuroides) (Alopecurus myosuroides; application to foliage): 1 (Herbicidal ratio of 5% or more and less than 20%); herbicidal effect, N (Amaranthus retroflexus) (Amaranthus retroflexus; application to foliage): 5 (Herbicidal ratio of 90% or more (almost completely withered)); herbicidal effect, L (Apera spica-venti.) (Apera spica-venti.; application to foliage): 2 (Herbicidal ratio of 20% or more and less than 40%); herbicidal effect, I (Avena fatua) (Avena fatua; application to foliage): 1 (Herbicidal ratio of 5% or more and less than 20%); herbicidal effect, O (Chenopodium album) (Chenopodium album; application to foliage): 5 (Herbicidal ratio of 90% or more (almost completely withered)); herbicidal effect, F (Digitaria ciliaris) (Digitaria ciliaris; application to foliage): 3 (Herbicidal ratio of 40% or more and less than 70%); herbicidal effect, H (Echinochloa crus-galli var. crus-galli) ([2]; application to foliage): 5 (Herbicidal ratio of 90% or more (almost completely withered)); herbicidal effect, Q (Galium spurium) (Galium spurium; application to foliage): 3 (Herbicidal ratio of 40% or more and less than 70%); herbicidal effect, K (Lolium multiflorum Lam.) (Lolium multiflorum Lam.; application to foliage): 1 (Herbicidal ratio of 5% or more and less than 20%); herbicidal effect, G (Setaria viridis) (Setaria viridis; application to foliage): 3 (Herbicidal ratio of 40% or more and less than 70%); herbicidal effect, P (Stellaria media) (Stellaria media; application to foliage): 5 (Herbicidal ratio of 90% or more (almost completely withered)); herbicidal effect, R (Veronica persica) (Veronica persica; application to foliage): 5 (Herbicidal ratio of 90% or more (almost completely withered)); effect on crop, f (Beta vulgaris ssp. vulgaris) ([3]; application to foliage): 5 (Herbicidal ratio of 90% or more (almost completely withered)); effect on crop, g (Brassica campestris L.) (Brassica campestris L.; application to foliage): 4 (Herbicidal ratio of 70% or more and less than 90%); effect on crop, c (Glycine max) (Glycine max; application to foliage): 0 (Herbicidal ratio of 5% or less (almost no effect)); effect on crop, e (Triticum aestivum) (Triticum aestivum; application to foliage): 0 (Herbicidal ratio of 5% or less (almost no effect)); effect on crop, b (Zea mays) (Zea mays; application to foliage): 1 (Herbicidal ratio of 5% or more and less than 20%); effect on crop, d (directly sowed Oryza sativa) ([4]; application to foliage): 1 (Herbicidal ratio of 5% or more and less than 20%)

From US9708314B2, “Heterocyclic amide compound” (NISSAN CHEMICAL INDUSTRIES, LTD., priority 2013, dated 2017)
